{
  "source": "paper PMC11008251",
  "about": "“Distribution of 2,2′,5,5′-Tetrachlorobiphenyl (PCB52) Metabolites in Adolescent Rats after Acute Nose-Only Inhalation Exposure” (Environmental Science & Technology, 2024)",
  "key": {"[1]": {"assay": "LC-HRMS analysis of PCB52 metabolites in tissues after 4 h nose-only inhalation", "assay_type": "in vivo, Sprague–Dawley rats", "description": "The Institutional Animal Care and Use Committee of the University of Iowa approved all of the animal protocols. Animals were housed in a temperature- and humidity-controlled room (21 °C, 55% relative humidity) with a 12 h light/dark cycle in an Association for the Assessment and Accreditation of Laboratory Animal Care (AAALAC) accredited animal facility. Animals were provided with food (sterile Teklad 5% stock diet, Harlan, Madison, WI) and water ad libitum throughout the study. Thirty-six male and female Sprague–Dawley rats (7 weeks of age; Charles River, Wilmington, MA) were allowed to acclimate to the animal facility for 8 days after arrival. Prior to exposure, rats (227 ± 27 and 197 ± 13 g, male and female, respectively) were randomly assigned to the exposure groups (n = 6 per group) using a random number generated (Excel, version 2307). Animals were simultaneously exposed for 4 h to a low or high concentration of PCB52-laden per sex) or filtered lab air (Figure 1A). Exposure duration was limited to 4 h along with scheduled training days (30 min at 55 days of age and 2 h at 56 days of age) to acclimate animals and minimize stress. […]\nTissues (brain, cecum and intestinal content, liver, lung, and serum) were homogenized and extracted for LC-HRMS analysis following a published approach; see the Supporting Information.[19] Extracts were analyzed at the High-Resolution Mass Spectrometry Facility at the University of Iowa on a Q-Exactive Orbitrap mass spectrometer (Thermo Fisher Scientific, Waltham, MA, U.S.A.) with an Axquity UPLC-C18 column (particle size: […], 2.1 × 100 mm, Waters, Milford, MA, U.S.A.); see the Supporting Information. […]\nAll analyses were conducted by using validated standard operating procedures. […] X1-OH-PCB52 estimated concentrations were calculated based on the relative response factor of 4-OH-PCB52. The precision and recoveries of the analyses were further assessed by measuring the recovery of PCB52 and 4-OH-PCB52 from spiked sample blanks and matched blank tissue matrices (Table S6). […]\nwere extracted and analyzed in parallel. […]"}, "[2]": {"assay": "PCB52 and monohydroxylated metabolite tissue levels by GC-MS/MS after 4 h nose-only inhalation", "assay_type": "in vivo, Sprague–Dawley rats", "conditions": "for concentration at 4 h: Sprague-Dawley, rat, inhaled, mean", "description": "PCB52 vapor for the animal exposure was generated using a published protocol.[12] Briefly, 450 g of 3 mm diameter glass beads were added to a solution of 1.5 g of PCB52 in dichloromethane. The glass beads were then coated with PCB52 by evaporating dichloromethane in a water bath at 29 °C using a rotary evaporator (Buchi Rotavapor R-200, New Castle, DE) under reduced pressure. For the animal exposures, high-efficiency particulate air (HEPA)-filtered laboratory air was passed through the PCB52-coated glass beads at a flow rate of 12 L/min to expose animals to PCB52 vapor in a nose-only exposure apparatus (Figure 1A). The flask of PCB52-coated beads and mixing chamber were kept at 25.0 °C using a precision water bath to facilitate the volatilization of PCB52. The PCB52-laden air was passed through a mixing chamber and distributed to the nose-only inhalation apparatus at a flow rate of 4 L/min per tower (n = 3) and a sampling cartridge filled with 10 g of Amberlite XAD-2 polymeric absorbent resin (Sigma-Aldrich, St. Louis, MO) at a flow rate of 2 L/min. The specified flow rates were generated using flow meter-regulated pumps. The XAD-2 cartridge was used to capture PCB52 vapor to characterize the exposure atmosphere. A sham exposure group was exposed in parallel to HEPA-filtered clean air in an identical nose-only exposure system in an adjacent lab with no supplied PCB52.\nThe Institutional Animal Care and Use Committee of the University of Iowa approved all of the animal protocols. Animals were housed in a temperature- and humidity-controlled room (21 °C, 55% relative humidity) with a 12 h light/dark cycle in an Association for the Assessment and Accreditation of Laboratory Animal Care (AAALAC) accredited animal facility. Animals were provided with food (sterile Teklad 5% stock diet, Harlan, Madison, WI) and water ad libitum throughout the study. Thirty-six male and female Sprague–Dawley rats (7 weeks of age; Charles River, Wilmington, MA) were allowed to acclimate to the animal facility for 8 days after arrival. Prior to exposure, rats (227 ± 27 and 197 ± 13 g, male and female, respectively) were randomly assigned to the exposure groups (n = 6 per group) using a random number generated (Excel, version 2307). Animals were simultaneously exposed for 4 h to a low or high concentration of PCB52-laden per sex) or filtered lab air (Figure 1A). Exposure duration was limited to 4 h along with scheduled training days (30 min at 55 days of age and 2 h at 56 days of age) to acclimate animals and minimize stress. […] Animal exposure occurred for 4 h at 57 days of age. Rats are considered adolescents at this age.[38] Serum was collected immediately after the animals were removed from the nose-only apparatus by cardiac puncture under isoflurane anesthesia. Rats were perfused with saline, and organs were excised and stored at −80 °C. Body and organ weights, including brain, lungs, and thymus, were not altered by PCB52 inhalation regardless of sex or exposure (Tables S2 and S3).\nPCB52 and its hydroxylated metabolites were extracted from tissues, serum, and cecum and intestinal content using a published protocol;[40],[41] see the Supporting Information. Briefly, PCB52 and its metabolites were extracted from homogenates by liquid–liquid extraction and cleaned by solid-phase extraction with acidified silica gel. PCB52 and metabolites were quantified in the multiple reaction monitoring setting (MRM) on an Agilent 7890 A GC system equipped with an Agilent 7000 Triple Quad and Agilent 7693 autosampler (Agilent Technologies, Santa Clara, CA); see the Supporting Information.\nPCB52 and metabolite levels, adjusted for tissue wet weight, are reported as the mean ± standard deviation. Differences in PCB52 and metabolite levels from the GC-MS/MS analysis were analyzed with the Tobit regression model because some measurements are below the detection limit. […]"}},
  "note": "Where two headings read alike, the source gives them in different places.",
  "data": [
    {"molecule": "Clc1ccc(Cl)c(-c2cc(Cl)ccc2Cl)c1", "note": "[PCB52, 2,2′,5,5′-tetrachlorobiphenyl]", "values": [
      {"measurement": "number of PCB52 metabolites identified by LC-HRMS", "setting": "[1]; liver", "result": 7, "unit": "metabolites"},
      {"measurement": "number of PCB52 metabolites identified by LC-HRMS", "setting": "[1]; lung", "result": 9, "unit": "metabolites"},
      {"measurement": "number of PCB52 metabolites identified by LC-HRMS", "setting": "[1]; serum", "result": 9, "unit": "metabolites"},
      {"measurement": "concentration at 4 h", "setting": "[2]; female, adipose, female, high dose, read-out: PCB or metabolite detected level, Adipose", "result": 6, "unit": "ng/g"},
      {"measurement": "concentration at 4 h", "setting": "[2]; female, adipose, female, low dose, read-out: PCB or metabolite detected level, Adipose", "result": 6, "unit": "ng/g"},
      {"measurement": "concentration at 4 h", "setting": "[2]; female, brain, female, high dose, read-out: PCB or metabolite detected level, Brain", "result": 2, "unit": "ng/g"},
      {"measurement": "concentration at 4 h", "setting": "[2]; female, brain, female, low dose, read-out: PCB or metabolite detected level, Brain", "result": 2, "unit": "ng/g"},
      {"measurement": "concentration at 4 h", "setting": "[2]; female, cecum, female, high dose, read-out: PCB or metabolite detected level, Cecum", "result": 1, "unit": "ng/g"},
      {"measurement": "concentration at 4 h", "setting": "[2]; female, cecum, female, low dose, read-out: PCB or metabolite detected level, Cecum", "result": 1, "unit": "ng/g"},
      {"measurement": "concentration at 4 h", "setting": "[2]; female, intestinal content, female, high dose, read-out: PCB or metabolite detected level, Intestinal content", "result": 2, "unit": "ng/g"},
      {"measurement": "concentration at 4 h", "setting": "[2]; female, intestinal content, female, low dose, read-out: PCB or metabolite detected level, Intestinal content", "result": 5, "unit": "ng/g"},
      {"measurement": "concentration at 4 h", "setting": "[2]; female, liver, female, high dose, read-out: PCB or metabolite detected level, Liver", "result": 7, "unit": "ng/g"},
      {"measurement": "concentration at 4 h", "setting": "[2]; female, liver, female, low dose, read-out: PCB or metabolite detected level, Liver", "result": 7, "unit": "ng/g"},
      {"measurement": "concentration at 4 h", "setting": "[2]; female, lung, female, high dose, read-out: PCB or metabolite detected level, Lung", "result": 45, "unit": "ng/g"},
      {"measurement": "concentration at 4 h", "setting": "[2]; female, lung, female, low dose, read-out: PCB or metabolite detected level, Lung", "result": 41, "unit": "ng/g"},
      {"measurement": "concentration at 4 h", "setting": "[2]; female, serum, female, high dose, read-out: PCB or metabolite detected level, Serum", "result": 1, "unit": "ng/g"},
      {"measurement": "concentration at 4 h", "setting": "[2]; female, serum, female, low dose, read-out: PCB or metabolite detected level, Serum", "result": 1, "unit": "ng/g"},
      {"measurement": "general trend of decreasing tissue concentration", "setting": "[2]; irrespective of sex or dose, GC-MS/MS", "result": "lung > liver > adipose > brain ≈ intestinal content ≈ cecum ≈ serum"},
      {"measurement": "concentration at 4 h", "setting": "[2]; male, adipose, male, high dose, read-out: PCB or metabolite detected level, Adipose", "result": 8, "unit": "ng/g"},
      {"measurement": "concentration at 4 h", "setting": "[2]; male, adipose, male, low dose, read-out: PCB or metabolite detected level, Adipose", "result": 6, "unit": "ng/g"},
      {"measurement": "concentration at 4 h", "setting": "[2]; male, brain, male, high dose, read-out: PCB or metabolite detected level, Brain", "result": 2, "unit": "ng/g"},
      {"measurement": "concentration at 4 h", "setting": "[2]; male, brain, male, low dose, read-out: PCB or metabolite detected level, Brain", "result": 1, "unit": "ng/g"},
      {"measurement": "concentration at 4 h", "setting": "[2]; male, cecum, male, high dose, read-out: PCB or metabolite detected level, Cecum", "result": 2, "unit": "ng/g"},
      {"measurement": "concentration at 4 h", "setting": "[2]; male, cecum, male, low dose, read-out: PCB or metabolite detected level, Cecum", "result": 1, "unit": "ng/g"},
      {"measurement": "concentration at 4 h", "setting": "[2]; male, intestinal content, male, high dose, read-out: PCB or metabolite detected level, Intestinal content", "result": 1, "unit": "ng/g"},
      {"measurement": "concentration at 4 h", "setting": "[2]; male, intestinal content, male, low dose, read-out: PCB or metabolite detected level, Intestinal content", "result": 1, "unit": "ng/g"},
      {"measurement": "concentration at 4 h", "setting": "[2]; male, liver, male, high dose, read-out: PCB or metabolite detected level, Liver", "result": 10, "unit": "ng/g"},
      {"measurement": "concentration at 4 h", "setting": "[2]; male, liver, male, low dose, read-out: PCB or metabolite detected level, Liver", "result": 9, "unit": "ng/g"},
      {"measurement": "concentration at 4 h", "setting": "[2]; male, lung, male, high dose, read-out: PCB or metabolite detected level, Lung", "result": 46, "unit": "ng/g"},
      {"measurement": "concentration at 4 h", "setting": "[2]; male, lung, male, low dose, read-out: PCB or metabolite detected level, Lung", "result": 50, "unit": "ng/g"},
      {"measurement": "concentration at 4 h", "setting": "[2]; male, serum, male, high dose, read-out: PCB or metabolite detected level, Serum", "result": 2, "unit": "ng/g"},
      {"measurement": "concentration at 4 h", "setting": "[2]; male, serum, male, low dose, read-out: PCB or metabolite detected level, Serum", "result": 2, "unit": "ng/g"}
    ]}
  ]
}
